Laboratory results as given in ChEMBL document CHEMBL1152983, “Substitution of the arginine/leucine residues in apidaecin Ib with peptoid residues: effect on antimicrobial activity, cellular uptake, and proteolytic degradation” (J Med Chem, 2009).
In brackets after ≈: the same amount, converted by molar mass. Starred links: 1 amine or outer side, 2 acyl side, 3 side chain; linkers in the order of their positions; H or OH if unused. Non-standard residues stand in square brackets, D forms with d. Residues, ends and D or L forms follow the SMILES beside them. Gly(N-(CH2)3-guanidino) = N=C(N)NCCCNCC(=O)O; X1 = N=C(N)NCCN(CC(=O)[*:2])[*:1]; NhArg = N=C(N)NCCCCNCC(=O)O

Tests used:
[1] = tested on: Salmonella enterica subsp. enterica; assay: Antimicrobial activity against Salmonella enteritidis PD1 after 18 hrs by broth microdilution susceptibility test; format: functional, Salmonella enterica subsp. enterica serovar Enteritidis; settings: PD1, 18 h
[2] = Toxicity in human erythrocytes assessed as hemolytic activity at 30 uM after 60 mins; format: cell-based, Erythrocyte; settings: read-out: Activity
Escherichia coli [3] = assay: Antimicrobial activity against Escherichia coli ML35 after 18 hrs by broth microdilution susceptibility test; format: functional; settings: ML35, 18 h
[4] = Toxicity in human erythrocytes assessed as hemolytic activity at 300 uM after 60 mins; format: cell-based, Erythrocyte; settings: read-out: Activity
[5] = tested on: Salmonella enterica subsp. enterica; assay: Antimicrobial activity against Salmonella enteritidis D5 after 18 hrs by broth microdilution susceptibility test; format: functional, Salmonella enterica subsp. enterica serovar Enteritidis; settings: D5, 18 h
Klebsiella pneumoniae = assay: Antimicrobial activity against Klebsiella pneumoniae 22 after 18 hrs by broth microdilution susceptibility test; format: functional; settings: Klebsiella pneumoniae, 22, 18 h
[6] = tested on: Salmonella enterica subsp. enterica; assay: Antimicrobial activity against Salmonella Typhimurium ATCC 14028 after 18 hrs by broth microdilution susceptibility test; format: functional, Salmonella enterica subsp. enterica serovar Typhimurium; settings: ATCC 14028, 18 h
[7] = Membrane permeabilization in eukaryotic membrane model consisting of single unilamellar vesicle of L-alpha-phosphatidylcholine-cholesterol assessed as 5(6)-carboxyfluorescein release at high peptide-to-lipid ratio after 50 mins by fluorescence assay; format: ADME, cell membranes
Escherichia coli [8] = assay: Antimicrobial activity against Escherichia coli O18K1H7 after 18 hrs by broth microdilution susceptibility test; format: functional; settings: O18K1H7, 18 h
[9] = Membrane permeabilization in eukaryotic membrane model consisting of single unilamellar vesicle of L-alpha-phosphatidylcholine-cholesterol assessed as 5(6)-carboxyfluorescein release at high peptide-to-lipid ratio after 20 mins by fluorescence assay; format: ADME, cell membranes
Escherichia coli [10] = assay: Antimicrobial activity against Escherichia coli ATCC 25922 after 18 hrs by broth microdilution susceptibility test; format: functional; settings: ATCC 25922, 18 h
[11] = Chemical stability assessed as compound degradation at 2 mg/mL within 30 mins by HPLC and ESI-MS analysis in presence of trypsin; format: physicochemical; settings: isolated protein, 0.5 h

Compound	MIC [1] [µM]	hemolysis at 1 h, 30 µM [2] [%]	MIC (Escherichia coli [3]) [µM]	hemolysis at 1 h, 300 µM [4] [%]	MIC [5] [µM]	MIC (Klebsiella pneumoniae) [µM]	MIC [6] [µM]	Activity [7]	MIC (Escherichia coli [8]) [µM]	Activity [9]	MIC (Escherichia coli [10]) [µM]	Stability [11]
CC[C@H](C)[C@H](NC(=O)[C@H](Cc1ccc(O)cc1)NC(=O)[C@@H](NC(=O)[C@@H]1CCCN1C(=O)[C@H](CCCNC(=N)N)NC(=O)[C@H](CC(N)=O)NC(=O)[C@H](CC(N)=O)NC(=O)CN)C(C)C)C(=O)N1CCC[C@H]1C(=O)N[C@@H](CCC(N)=O)C(=O)N1CCC[C@H]1C(=O)N[C@@H](CCCNC(=N)N)C(=O)N1CCC[C@H]1C(=O)N1CCC[C@H]1C(=O)N[C@@H](Cc1cnc[nH]1)C(=O)N1CCC[C@H]1C(=O)N(CCNC(=N)N)CC(=O)N[C@@H](CC(C)C)C(=O)O (H-GNNRPVYIPQPRPPHP[X1]L-OH)	> 128	≤ 2	> 128	0.62	> 128	> 128	> 128	Not Active	> 128	Not Active	> 128	–
CC[C@H](C)[C@H](NC(=O)[C@H](Cc1ccc(O)cc1)NC(=O)[C@@H](NC(=O)[C@H](CCCNC(=N)N)NC(=O)[C@H](CC(N)=O)NC(=O)[C@H](CC(N)=O)NC(=O)CN)C(C)C)C(=O)N1CCC[C@H]1C(=O)N[C@@H](CCC(N)=O)C(=O)N1CCC[C@H]1C(=O)N[C@@H](CCCNC(=N)N)C(=O)N1CCC[C@H]1C(=O)N[C@@H](Cc1cnc[nH]1)C(=O)N1CCC[C@H]1C(=O)N[C@@H](CCCNC(=N)N)C(=O)N[C@@H](CC(C)C)C(=O)O (H-GNNRVYIPQPRPHPRL-OH)	–	≤ 2	–	–	–	> 128	> 128	Not Active	–	Not Active	> 128	–
CC[C@H](C)[C@H](NC(=O)[C@H](Cc1ccc(O)cc1)NC(=O)[C@@H](NC(=O)[C@@H]1CCCN1C(=O)CN(CCCNC(=N)N)C(=O)[C@H](CC(N)=O)NC(=O)[C@H](CC(N)=O)NC(=O)CN)C(C)C)C(=O)N1CCC[C@H]1C(=O)N[C@@H](CCC(N)=O)C(=O)N1CCC[C@H]1C(=O)N[C@@H](CCCNC(=N)N)C(=O)N1CCC[C@H]1C(=O)N1CCC[C@H]1C(=O)N[C@@H](Cc1cnc[nH]1)C(=O)N1CCC[C@H]1C(=O)N[C@@H](CCCNC(=N)N)C(=O)N[C@@H](CC(C)C)C(=O)O (H-GNN[Gly(N-(CH2)3-guanidino)]PVYIPQPRPPHPRL-OH)	32 (≈ 67.5 µg/mL)	≤ 2	16 (≈ 33.7 µg/mL)	0.06	32 (≈ 67.5 µg/mL)	> 128	16 (≈ 33.7 µg/mL)	Not Active	16 (≈ 33.7 µg/mL)	Not Active	16 (≈ 33.7 µg/mL)	–
CC[C@H](C)[C@H](NC(=O)[C@H](Cc1ccc(O)cc1)NC(=O)[C@@H](NC(=O)[C@@H]1CCCN1C(=O)[C@H](CCCNC(=N)N)NC(=O)[C@H](CC(N)=O)NC(=O)[C@H](CC(N)=O)NC(=O)CN)C(C)C)C(=O)N1CCC[C@H]1C(=O)N[C@@H](CCC(N)=O)C(=O)N1CCC[C@H]1C(=O)N[C@@H](CCCNC(=N)N)C(=O)N1CCC[C@H]1C(=O)N1CCC[C@H]1C(=O)N[C@@H](Cc1cnc[nH]1)C(=O)N1CCC[C@H]1C(=O)N[C@@H](CCCNC(=N)N)C(=O)N[C@@H](CC(C)C)C(=O)O [APIDAECIN]	8 (≈ 16.9 µg/mL)	≤ 2	8 (≈ 16.9 µg/mL)	1.19	8 (≈ 16.9 µg/mL)	64 (≈ 135 µg/mL)	4 (≈ 8.43 µg/mL)	Not Active	8 (≈ 16.9 µg/mL)	Not Active	8 (≈ 16.9 µg/mL)	Unstable
CC[C@H](C)[C@H](NC(=O)[C@H](Cc1ccc(O)cc1)NC(=O)[C@@H](NC(=O)[C@@H]1CCCN1C(=O)[C@H](CCCNC(=N)N)NC(=O)[C@H](CC(N)=O)NC(=O)[C@H](CC(N)=O)NC(=O)CN)C(C)C)C(=O)N1CCC[C@H]1C(=O)N[C@@H](CCC(N)=O)C(=O)N1CCC[C@H]1C(=O)N(CCCNC(=N)N)CC(=O)N1CCC[C@H]1C(=O)N1CCC[C@H]1C(=O)N[C@@H](Cc1cnc[nH]1)C(=O)N1CCC[C@H]1C(=O)N[C@@H](CCCNC(=N)N)C(=O)N[C@@H](CC(C)C)C(=O)O (H-GNNRPVYIPQP[Gly(N-(CH2)3-guanidino)]PPHPRL-OH)	32 (≈ 67.5 µg/mL)	≤ 2	16 (≈ 33.7 µg/mL)	2	16 (≈ 33.7 µg/mL)	> 128	16 (≈ 33.7 µg/mL)	Not Active	16 (≈ 33.7 µg/mL)	Not Active	16 (≈ 33.7 µg/mL)	–
CC[C@H](C)[C@H](NC(=O)[C@H](Cc1ccc(O)cc1)NC(=O)[C@@H](NC(=O)[C@@H]1CCCN1C(=O)[C@H](CCCNC(=N)N)NC(=O)[C@H](CC(N)=O)NC(=O)[C@H](CC(N)=O)NC(=O)CN)C(C)C)C(=O)N1CCC[C@H]1C(=O)N[C@@H](CCC(N)=O)C(=O)N1CCC[C@H]1C(=O)N[C@@H](CCCNC(=N)N)C(=O)N1CCC[C@H]1C(=O)N1CCC[C@H]1C(=O)N[C@@H](Cc1cnc[nH]1)C(=O)N1CCC[C@H]1C(=O)N(CCCCNC(=N)N)CC(=O)N[C@@H](CC(C)C)C(=O)O (H-GNNRPVYIPQPRPPHP[NhArg]L-OH)	> 128	≤ 2	> 128	0.81	> 128	> 128	> 128	Not Active	> 128	Not Active	> 128	–
